Laboratory results reported in EP3434287B1, “SHORT AND ULTRA-SHORT ANTIMICROBIAL LIPOPEPTIDES AND USE THEREOF” (Arta Peptidion S.r.l.s., priority 2017, dated 2019).
In brackets after ≈: the same amount, converted by molar mass. Several values for one entry are separate records, joined by “and”; a condition that tells them apart may be missing. Identical values can stand only once. Like-named read-outs stand apart in the source and are kept apart here. One block for each compound: values may come before it. Residues, ends and D or L forms follow the SMILES beside them. *: point of attachment. Myristoyl = CCCCCCCCCCCCCC(=O)*; Lauroyl = CCCCCCCCCCCC(=O)*; Octanoyl = CCCCCCCC(=O)*; Hexanoyl = CCCCCC(=O)*

Tests used:
[1] = Cytotoxicity, MTT assay; format: cell-based; settings: human, A549 cells (lung cancer epithelial cell line), treated for 24-72 h, read-out: LC50 (the source's name)
Procedure: In the present invention, cytotoxicity of the lipopeptides against a epithelial cell line was also determined, for example, A549 cells (lung cancer). Cells were cultured in the presence and in the absence of peptides and the damage to the membrane was evaluated by the vital stain MTT.
The colorimetric 3-(4,5-dimethylthiazol-2-yl)-2,5-diphenyl tetrazolium bromide (MTT) assay was performed to assess the metabolic activity of cells plated into 96-well culture plates (10 5 cell/well) and treated with 0.5-25 µM of in complete medium for 24-72 h. At the end of treatments, fullerenes containing medium were removed and replaced with fresh medium; for the cytotoxic assay, 20 µL stock MTT (5 mg/mL) was added to each well, and cells were then incubated for 4 hr at 37 °C. The converted MTT dye was solubilised with acidic isopropanol (0.04 N HCl in absolute isopropanol). Absorbance was measured at 540 nm and 630 nm using a microplate reader (Automated Microplate Reader EL311, BIO-TEK Instruments, Vermont, USA). All measurements were done in triplicate and each experiment was repeated at least three times.

[2] = system: E.coli; format: cell-based, Escherichia coli ATCC 25922
Procedure: (§1) The antimicrobial activity of a lipopeptide can be determined using a method known in the art, for example, the broth-dilution method. Essentially, this method involves the growth of a microorganism in a liquid medium until it reaches the logarithmic phase. The test lipopeptide is serially diluted with growth medium for the test bacterium in the wells of a multiwell plate. An optimal concentration of the microorganism is added to the wells containing the serially diluted lipopeptide. The plate is incubated in a thermostat at a temperature of 37° C. for a time sufficient for the microorganism to grow. The growth of the microorganism, evaluated in comparison with a negative control (microorganism grown in the absence of the lipopeptide), is determined by detecting the absorbance of the solution containing the bacterium, for example, at 605 nm.
(§2) The minimum inhibitory concentration values (MICs) of the lipopeptides and of conventional antibiotics were determined by the broth microdilution susceptibility test following the guidelines of the NCCLS with mid-log phase cultures. Serial two-fold dilutions of each peptide were prepared (final volume of 50 ul) in 96-well polypropylene microtiter plates (UNIFO, Treviso, Italy) with MH broth for bacteria and RPMI-1640 for fungi. Each dilution series included con-trol wells without peptide. A total of 50 ul of the adjusted inoculum (approximately 5 × 10^5 cells/ml for bacteria or 5 × 10^4 cells/ml for fungi, in the appropriate medium) was added to each well. To evaluate the MIC, microtiter plates with bacteria were incubated at 37° C overnight, while those with fungi were incubated at 30° C for 48 h. The fatty acid tested were: C6 (hexanoic),C8 (octanoic),C10 (decanoic),C12 (lauric),C14 (mystiric).
as §2, with “control” for “con-trol”, “h.” for “h. The fatty acid tested were: C6 (hexanoic),C8 (octanoic),C10 (decanoic),C12 (lauric),C14 (mystiric).”

[3] = system: C.albicans SC5314; experiment: MIC against filamentous yeast strain, broth microdilution susceptibility test (NCCLS); format: cell-based; settings: RPMI-1640, 30° C for 48 h
Procedure: as §2, with “Italy)” for “Italy) with MH broth for bacteria and”, “h.” for “h. The fatty acid tested were: C6 (hexanoic),C8 (octanoic),C10 (decanoic),C12 (lauric),C14 (mystiric).”
(§3) This example was performed on two different strain of C.albicans. Both strain are human clinical isolate recovered from a patient with generalized candidiasis.

[4] = system: P.aeruginosa; format: cell-based, Pseudomonas aeruginosa ATCC 27853
Procedure: as §1, §2
as §2, with “control” for “con-trol”, “h.” for “h. The fatty acid tested were: C6 (hexanoic),C8 (octanoic),C10 (decanoic),C12 (lauric),C14 (mystiric).”

[5] = system: S.aureus; format: cell-based, S. aureus (ATCC 25923)
Procedure: as §1, §2
as §2, with “h.” for “h. The fatty acid tested were: C6 (hexanoic),C8 (octanoic),C10 (decanoic),C12 (lauric),C14 (mystiric).”

[6] = system: C. albicans ATCC 90029; format: cell-based; settings: RPMI-1640, 30° C for 48 h
Procedure: as §2, with “Italy)” for “Italy) with MH broth for bacteria and”, “h.” for “h. The fatty acid tested were: C6 (hexanoic),C8 (octanoic),C10 (decanoic),C12 (lauric),C14 (mystiric).”
as §3

[7] = Example 1, effect of fatty acid length on RFWR, MH broth, 37° C overnight

Structure (SMILES): CCCCCCCCCCCC(=O)N[C@@H](CCCNC(=N)N)C(=O)N[C@H](C(=O)N[C@@H](Cc1c[nH]c2ccccc12)C(=O)N[C@@H](CCCNC(=N)N)C(N)=O)[C@@H](C)CC [Lipopeptide 6, Lau-RIWR-NH2] (Lauroyl-RIWR-NH2)
- CC50 [1]: 100 µg/mL and ~118 µM
- MIC against E. coli [2]: 7.39 µM
- MIC against C.albicans SC5314 strain [3]: 12.5 µg/mL (≈ 15.4 µM)
- MIC against P. aeruginosa [4]: 14.7 µM
- MIC against P. aeruginosa ([4]; MH broth, 37° C overnight): 12.5 µg/mL
- MIC against S.aureus [5]: 1.77 µM (≈ 1.44 µg/mL)

Structure (SMILES): CCCCCC(=O)N[C@@H](CCCNC(=N)N)C(=O)N[C@@H](Cc1ccccc1)C(=O)N[C@@H](Cc1c[nH]c2ccccc12)C(=O)N[C@@H](CCCNC(=N)N)C(N)=O [Lipopeptide 1] (Hexanoyl-RFWR-NH2)
- Bacteria (MIC, ug/ml) E.coli [2, 7]: >400 µg/mL
- Bacteria (MIC, ug/ml) P.aeruginosa [4, 7]: >400 µg/mL
- Bacteria (MIC, ug/ml) S.aureus [5, 7]: >400 µg/mL

Structure (SMILES): CCCCCCCCCCCC(=O)N[C@@H](CCCNC(=N)N)C(=O)N[C@@H](Cc1ccccc1)C(=O)N[C@@H](Cc1c[nH]c2ccccc12)C(=O)N[C@@H](CCCNC(=N)N)C(N)=O [Lipopeptide 4] (Lauroyl-RFWR-NH2)
- Bacteria (MIC, ug/ml) E.coli [2]: 12.5 µg/mL
- Bacteria (MIC, ug/ml) P.aeruginosa [4]: 12.5 µg/mL
- Bacteria (MIC, ug/ml) S.aureus [5]: 3.125 µg/mL

Structure (SMILES): CCCCCCCCCCCC(=O)N[C@@H](CCCNC(=N)N)C(=O)N[C@@H](CCCNC(=N)N)C(=O)N[C@@H](Cc1ccccc1)C(=O)N[C@@H](Cc1c[nH]c2ccccc12)C(N)=O [Lipopeptide 14, Lau-RRFW-NH2] (Lauroyl-RRFW-NH2)
- MIC against C.albicans SC5314 strain [3]: 12.5 µg/mL (≈ 14.8 µM)

Structure (SMILES): CCCCCCCCCCCC(=O)N[C@@H](CCCNC(=N)N)C(=O)N[C@@H](Cc1ccccc1)C(=O)N[C@@H](Cc1c[nH]c2ccccc12)C(=O)N[C@@H](CCCNC(=N)N)C(N)=O [Lipopeptide 3, Lau-RFWR-NH2] (Lauroyl-RFWR-NH2)
- CC50 [1]: 100 µg/mL and ~118 µM
- MIC against E. coli [2]: 7.39 µM
- Bacteria (MIC, ug/ml) E.coli [2, 7]: 25 µg/mL
- MIC against P. aeruginosa [4]: 14.7 µM
- Bacteria (MIC, ug/ml) P.aeruginosa [4, 7]: 50 µg/mL
- MIC against P. aeruginosa ([4]; MH broth, 37° C overnight): 12.5 µg/mL
- MIC against S.aureus [5]: 3.66 µM (≈ 3.09 µg/mL)
- Bacteria (MIC, ug/ml) S.aureus [5, 7]: 12.5 µg/mL

Structure (SMILES): CCCCCCCCCCCC(=O)N[C@@H](CCCNC(=N)N)C(=O)N[C@@H](CCCNC(=N)N)C(=O)N[C@@H](Cc1ccccc1)C(=O)N[C@@H](Cc1c[nH]c2ccccc12)C(N)=O [Lipopeptide 14] (Lauroyl-RRFW-NH2)
- MIC against E. coli [2]: 14.7 µM
- MIC against E. coli ([2]; MH broth, 37° C overnight): 12.5 µg/mL
- MIC against P. aeruginosa [4]: 14.7 µM
- MIC against P. aeruginosa ([4]; MH broth, 37° C overnight): 12.5 µg/mL

Structure (SMILES): CCCCCCCCCCCC(=O)N[C@@H](CCCNC(=N)N)C(=O)N[C@@H](CCSC)C(=O)N[C@@H](Cc1c[nH]c2ccccc12)C(=O)N[C@@H](CCCNC(=N)N)C(N)=O [Lipopeptide 8, Lau-RMWR-NH2] (Lauroyl-RMWR-NH2)
- MIC against C.albicans SC5314 strain [3]: 12.5 µg/mL (≈ 15.1 µM)

- Bacteria (MIC, ug/ml) E.coli [2]: >400 µg/mL
- Bacteria (MIC, ug/ml) P.aeruginosa [4]: >400 µg/mL
- Bacteria (MIC, ug/ml) S.aureus [5]: >400 µg/mL
Structure (SMILES): N=C(N)NCCC[C@H](NC(=O)[C@H](Cc1c[nH]c2ccccc12)NC(=O)[C@H](Cc1ccccc1)NC(=O)[C@@H](N)CCCNC(=N)N)C(N)=O [Lipopeptide 0] (H-RFWR-NH2; N-terminus and C-terminus assumed)

- Bacteria (MIC, ug/ml) E.coli [2]: 100 µg/mL
- Bacteria (MIC, ug/ml) P.aeruginosa [4]: 100 µg/mL
- Bacteria (MIC, ug/ml) S.aureus [5]: 100 µg/mL
Structure (SMILES): CCCCCCCC(=O)N[C@@H](CCCNC(=N)N)C(=O)N[C@@H](Cc1ccccc1)C(=O)N[C@@H](Cc1c[nH]c2ccccc12)C(=O)N[C@@H](CCCNC(=N)N)C(N)=O [Lipopeptide 2] (Octanoyl-RFWR-NH2)

- MIC against C. albicans ATCC strain [6]: 1.56 µg/mL (≈ 1.35 µM)
Structure (SMILES): CCCCCCCCCCCC(=O)N[C@@H](CCCNC(=N)N)C(=O)N[C@@H](CCCNC(=N)N)C(=O)N[C@@H](Cc1ccccc1)C(=O)N[C@@H](Cc1c[nH]c2ccccc12)C(=O)N[C@@H](CCCNC(=N)N)C(=O)N[C@@H](CCCNC(=N)N)C(N)=O [Lipopeptide 16, Lau-RRFWRR-NH2] (Lauroyl-RRFWRR-NH2)

- Bacteria (MIC, ug/ml) E.coli [2]: 25 µg/mL
- Bacteria (MIC, ug/ml) P.aeruginosa [4]: 50 µg/mL
- Bacteria (MIC, ug/ml) S.aureus [5]: 6.125 µg/mL
Structure (SMILES): CCCCCCCCCCCCCC(=O)N[C@@H](CCCNC(=N)N)C(=O)N[C@@H](Cc1ccccc1)C(=O)N[C@@H](Cc1c[nH]c2ccccc12)C(=O)N[C@@H](CCCNC(=N)N)C(N)=O [Lipopeptide 5] (Myristoyl-RFWR-NH2)
